From patent publication US20180263860A1, “DELIVERY SYSTEMS FOR APPLICATION OF ANTIBIOTIC GEL FORMULATION” (Indiana University Research and Technology Corporation, priority 2015, published 2018)
“Also recorded” adds a separate entry of the source.

Tests used:
[1] = test system: three-week old E. faecalis biofilm; assay: Biofilm disruption assay on infected dentin samples (Example 2); format: cell-based, Enterococcus faecalis; details: immersion for 5 minutes
Method: Unidentified intact human teeth were collected, stored in 0.1% thymol solution at 4° C., and used within 6 months after obtaining local Institutional Review Board approval (IRB #1409251353). A standardized radicular dentin sample (4×4×1 mm^3) was obtained from each root using a slow diamond saw (IsoMet, Buehler, Lake Bluff, Ill.) under continuous distilled water irrigation. The pulpal side of each specimen was wet-finished with silicon carbide abrasive papers (500-2400 grit, Struers, Cleveland, Ohio). The polished samples were then sonicated in deionized water for 3 minutes, washed with sterile water, wrapped individually with moist cotton pellets, placed in Whirl-pak bags (Sigma-Aldrich, St Louis, Mo.), gas sterilized with ethylene oxide, and stored at 4° C. until used. E. faecalis (ATCC 29212) was grown initially on anaerobic blood agar plates (CDC, BioMerieux, Durham, N.C.). […] Dentin samples were placed individually in separate wells of a 96-sterile well plate (Fisherbrand, Fischer Scientific) with the pulpal side facing upwards. Then, 10 μl of an overnight E. faecalis culture (10^6 CFU/mL) dispersed in 190 μL of fresh BHI-YE growth media was added to each dentin specimen. […] The CFUs/mL were quantified using an automated colony counter (Synbiosis, Inc., Frederick, Md.). Summary statistics were calculated for the log-transformed data from each group. […]

[2] = test system: stem cells from apical papillae and dental pulp stem cells; details: 2% CHX; recent in vitro studies; cited from earlier work

Structure (SMILES)	antibiofilm effect (log CFU/mL) ([1]; 1.5% NaOCl)	effects on survival and attachment of stem cells from apical and dental pulp [2]	antibiofilm effect (log CFU/mL) ([1]; 2% CHX)
OCl [NaOCl, sodium hypochlorite]	significant reduction and complete eradication of E. faecalis biofilm	–	–
N=C(NCCCCCCNC(=N)NC(=N)Nc1ccc(Cl)cc1)NC(=N)Nc1ccc(Cl)cc1.O=C(O)[C@H](O)[C@@H](O)[C@H](O)[C@H](O)CO.O=C(O)[C@H](O)[C@@H](O)[C@H](O)[C@H](O)CO [CHX]	–	highly unfavorable effects	significant reduction in E. faecalis biofilm; also recorded: nearly eliminate the bacterial biofilm
